{"source": "paper PMC6867895", "about": "(mBio, 2019)", "key": {"[1]": {"target": "T1, VIM-2 (Pseudomonas aeruginosa, UniProt Q9K2N0)", "T1 construct": "gene blaVIM-2", "details": "read-out: Parameter by metallo-β-lactamase / VIM-2 / KM; 50 mM HEPES pH 7.0, 10 μM added ZnSO4, 25°C"}, "[2]": {"system": "E. coli DH10B pBCSK- blaVIM-2", "assay": "microbe, parasite or virus in culture", "details": "Escherichia coli, read-out: MIC"}, "[3]": {"system": "E. coli DH10B pBCSK-", "assay": "microbe, parasite or virus in culture", "details": "Escherichia coli, DH10BPBCSK, read-out: MIC"}, "[4]": {"target": "T1, VIM-2", "details": "read-out: Parameter by metallo-β-lactamase / VIM-2 / KM; 50 mM HEPES pH 7.0, 10 μM added ZnSO4, 25°C", "remark": "listed apart in the source"}, "[5]": {"target": "T1, VIM-2", "details": "read-out: Parameter by metallo-β-lactamase / VIM-2 / KM; 50 mM HEPES pH 7.0, 10 μM added ZnSO4, 25°C", "remark": "listed apart in the source"}, "[6]": {"target": "T1, VIM-2", "assay": "initial-rate hydrolysis, absorbance […] nm (product formation)", "assay_type": "biochemical", "details": "read-out: Parameter by metallo-β-lactamase / VIM-2 / KM; 50 mM HEPES pH 7.0, 10 μM added ZnSO4, 25°C"}}, "note": "Read-outs that look alike come from different tables or passages of the source.", "data": [{"compound": "CC1(C)S[C@@H]2[C@H](NC(=O)[C@H](N)c3ccccc3)C(=O)N2[C@H]1C(=O)O", "note": "[Ampicillin]", "values": [{"measurement": "Km", "setting": "[1]", "value": "84 ± 7", "unit": "µM"}, {"measurement": "MIC", "setting": "[2]", "value": 1020, "unit": "µg/mL"}, {"measurement": "MIC", "setting": "[3]", "value": 4, "unit": "µg/mL"}]}, {"compound": "CC(C)(O/N=C(\\C(=O)N[C@@H]1C(=O)N2C(C(=O)[O-])=C(C[n+]3ccccc3)CS[C@H]12)c1csc(N)n1)C(=O)O", "note": "[Ceftazidime]", "values": [{"measurement": "Km", "setting": "[4]", "value": "90 ± 11", "unit": "µM"}, {"measurement": "MIC", "setting": "[2]", "value": 32, "unit": "µg/mL"}, {"measurement": "MIC", "setting": "[3]", "value": 0.5, "unit": "µg/mL"}]}, {"compound": "CC(=O)OCC1=C(C(=O)O)N2C(=O)[C@@H](NC(=O)Cc3cccs3)[C@H]2SC1", "note": "[Cephalothin]", "values": [{"measurement": "MIC", "setting": "[2]", "value": 256, "unit": "µg/mL"}, {"measurement": "MIC", "setting": "[3]", "value": 4, "unit": "µg/mL"}]}, {"compound": "C[C@@H](O)[C@H]1C(=O)N2C(C(=O)O)=C(S[C@@H]3CN[C@H](C(=O)Nc4cccc(C(=O)O)c4)C3)[C@H](C)[C@H]12", "note": "[Ertapenem]", "values": [{"measurement": "MIC", "setting": "[2]", "value": 0.25, "unit": "µg/mL"}, {"measurement": "MIC", "setting": "[3]", "value": 0.0075, "unit": "µg/mL"}]}, {"compound": "C[C@@H](O)[C@H]1C(=O)N2C(C(=O)O)=C(SCCNC=N)C[C@H]12", "note": "[Imipenem]", "values": [{"measurement": "MIC", "setting": "[2]", "value": 4, "unit": "µg/mL"}, {"measurement": "MIC", "setting": "[3]", "value": 0.5, "unit": "µg/mL"}]}, {"compound": "C[C@@H](O)[C@H]1C(=O)N2C(C(=O)O)=C(S[C@@H]3CN[C@H](C(=O)N(C)C)C3)[C@H](C)[C@H]12", "note": "[Meropenem]", "values": [{"measurement": "Km", "setting": "[5]", "value": "5 ± 0.8", "unit": "µM"}, {"measurement": "MIC", "setting": "[2]", "value": 0.5, "unit": "µg/mL"}, {"measurement": "MIC", "setting": "[3]", "value": 0.03, "unit": "µg/mL"}]}, {"compound": "Chromacef", "values": [{"measurement": "Km", "setting": "[6]", "value": "11 ± 2", "unit": "µM"}]}]}
